The values that follow come from ChEMBL document CHEMBL5696442, “Discovery of type II inhibitors of TGFβ-activated kinase 1 (TAK1) and mitogen-activated protein kinase kinase kinase kinase 2 (MAP4K2)” (J Med Chem, 2015).

The source made the active and inactive calls. No cut-off for these calls is given here.

In test [1] the target is Serine/threonine-protein kinase SIK2 (Homo sapiens) (UniProt Q9H0K1). Put plainly: Inhibition of SIK2 (unknown origin) at 1 uM by Ambit Kinomescan binding assay relative to control.
Chain of Serine/threonine-protein kinase SIK2 (Homo sapiens) (Q9H0K1 whole entry, looked up): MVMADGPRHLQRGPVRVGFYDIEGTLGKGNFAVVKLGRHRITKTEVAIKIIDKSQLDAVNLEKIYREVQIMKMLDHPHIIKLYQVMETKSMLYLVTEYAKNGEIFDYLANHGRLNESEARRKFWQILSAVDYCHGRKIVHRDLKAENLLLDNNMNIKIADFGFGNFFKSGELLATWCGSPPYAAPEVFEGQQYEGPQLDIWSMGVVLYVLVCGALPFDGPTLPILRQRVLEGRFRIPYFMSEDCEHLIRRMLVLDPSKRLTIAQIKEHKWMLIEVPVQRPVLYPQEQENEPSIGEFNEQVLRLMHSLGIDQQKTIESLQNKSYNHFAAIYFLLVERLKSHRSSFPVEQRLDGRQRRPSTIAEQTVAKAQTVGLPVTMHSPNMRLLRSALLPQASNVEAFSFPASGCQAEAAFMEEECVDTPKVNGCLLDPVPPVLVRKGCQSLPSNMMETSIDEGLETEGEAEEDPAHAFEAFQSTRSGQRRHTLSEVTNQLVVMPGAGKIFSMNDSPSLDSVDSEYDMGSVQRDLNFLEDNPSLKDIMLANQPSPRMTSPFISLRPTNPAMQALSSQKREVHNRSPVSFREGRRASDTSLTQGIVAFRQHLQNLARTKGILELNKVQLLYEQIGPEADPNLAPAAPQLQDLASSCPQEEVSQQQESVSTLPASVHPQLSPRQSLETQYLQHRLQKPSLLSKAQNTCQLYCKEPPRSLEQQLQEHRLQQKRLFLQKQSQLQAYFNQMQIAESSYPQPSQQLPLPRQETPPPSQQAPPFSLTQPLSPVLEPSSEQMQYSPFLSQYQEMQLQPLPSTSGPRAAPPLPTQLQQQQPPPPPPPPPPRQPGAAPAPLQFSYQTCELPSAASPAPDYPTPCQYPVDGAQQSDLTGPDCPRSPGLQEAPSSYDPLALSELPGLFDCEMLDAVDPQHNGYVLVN
Test [2] concerns the target Tyrosine-protein kinase HCK (Homo sapiens) (UniProt P08631). Put plainly: Inhibition of HCK (unknown origin) at 1 uM by Ambit Kinomescan binding assay relative to control; values are per cent of control.
For test [3], the system named is Epidermal growth factor receptor (Homo sapiens), P00533 [UNDEFINED MUTATION]. Put plainly: Inhibition of EGFR L747/T751del mutant (unknown origin) at 1 uM by Ambit Kinomescan binding assay relative to control.
Chain of Epidermal growth factor receptor (Homo sapiens), P00533 [UNDEFINED MUTATION] (P00533 whole entry, looked up, stated change not applied): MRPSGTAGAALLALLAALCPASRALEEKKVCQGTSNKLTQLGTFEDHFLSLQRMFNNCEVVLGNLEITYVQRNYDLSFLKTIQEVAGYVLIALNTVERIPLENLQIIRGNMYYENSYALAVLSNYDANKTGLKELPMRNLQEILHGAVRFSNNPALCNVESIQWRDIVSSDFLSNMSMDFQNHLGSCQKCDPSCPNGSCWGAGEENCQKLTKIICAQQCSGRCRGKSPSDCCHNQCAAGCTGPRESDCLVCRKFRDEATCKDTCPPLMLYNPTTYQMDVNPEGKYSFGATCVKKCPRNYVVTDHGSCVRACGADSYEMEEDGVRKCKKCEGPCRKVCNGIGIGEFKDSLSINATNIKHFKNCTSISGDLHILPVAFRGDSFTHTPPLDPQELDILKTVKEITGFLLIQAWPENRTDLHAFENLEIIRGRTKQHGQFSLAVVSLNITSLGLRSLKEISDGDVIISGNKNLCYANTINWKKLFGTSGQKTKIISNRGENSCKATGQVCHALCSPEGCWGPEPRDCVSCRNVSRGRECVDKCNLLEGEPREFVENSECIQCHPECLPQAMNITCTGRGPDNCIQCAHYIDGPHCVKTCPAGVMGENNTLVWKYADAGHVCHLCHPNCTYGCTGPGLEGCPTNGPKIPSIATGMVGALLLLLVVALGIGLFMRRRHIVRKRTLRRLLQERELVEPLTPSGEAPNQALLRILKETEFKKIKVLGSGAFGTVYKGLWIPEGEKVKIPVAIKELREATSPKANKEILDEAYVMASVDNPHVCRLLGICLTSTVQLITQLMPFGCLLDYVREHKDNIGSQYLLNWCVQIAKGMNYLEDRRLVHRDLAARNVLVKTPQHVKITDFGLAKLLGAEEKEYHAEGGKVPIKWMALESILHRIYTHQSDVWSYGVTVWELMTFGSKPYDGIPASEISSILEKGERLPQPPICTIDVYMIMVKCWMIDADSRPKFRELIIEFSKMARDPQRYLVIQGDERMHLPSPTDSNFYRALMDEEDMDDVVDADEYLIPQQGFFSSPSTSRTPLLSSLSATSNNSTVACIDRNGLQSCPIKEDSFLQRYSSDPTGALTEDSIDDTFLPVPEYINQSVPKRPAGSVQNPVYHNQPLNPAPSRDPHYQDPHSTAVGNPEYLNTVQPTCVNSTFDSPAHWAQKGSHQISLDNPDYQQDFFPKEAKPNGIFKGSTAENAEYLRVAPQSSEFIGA
Test [4] concerns the target PKC alpha and beta-2 (Homo sapiens) (UniProt P17252+P05771). Put plainly: Inhibition of PKCalpha/beta K2 labeling site in human Huh-7 cells at 10 uM by KiNativ Profiling analysis relative to control. It is filed as cell-based.
Test [5] deals with Cyclin-dependent kinase 17 (Homo sapiens) (UniProt Q00537). Kind of test: Inhibition of PCTAIRE2 K2 labeling site in human Huh-7 cells at 1 uM by KiNativ Profiling analysis relative to control. Type of test: cell-based.
Chain of Cyclin-dependent kinase 17 (Homo sapiens) (Q00537 whole entry, looked up, canonical isoform): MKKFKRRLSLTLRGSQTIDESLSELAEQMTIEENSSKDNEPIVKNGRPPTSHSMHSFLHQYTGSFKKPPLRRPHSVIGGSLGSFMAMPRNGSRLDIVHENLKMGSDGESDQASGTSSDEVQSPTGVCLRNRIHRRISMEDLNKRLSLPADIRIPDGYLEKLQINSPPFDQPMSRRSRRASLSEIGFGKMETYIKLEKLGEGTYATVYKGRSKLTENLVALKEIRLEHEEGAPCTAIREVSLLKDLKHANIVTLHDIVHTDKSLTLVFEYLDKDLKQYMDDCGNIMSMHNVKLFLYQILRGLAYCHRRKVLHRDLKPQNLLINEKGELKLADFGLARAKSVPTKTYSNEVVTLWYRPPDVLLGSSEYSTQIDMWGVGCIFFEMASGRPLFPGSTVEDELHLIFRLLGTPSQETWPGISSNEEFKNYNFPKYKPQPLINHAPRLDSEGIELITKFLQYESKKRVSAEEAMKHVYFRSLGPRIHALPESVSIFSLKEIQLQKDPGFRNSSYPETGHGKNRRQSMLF
Test [6] deals with Phosphatidylinositol 4,5-bisphosphate 3-kinase catalytic subunit alpha isoform (Homo sapiens) (UniProt P42336). Put plainly: Inhibition of PIK3CA (unknown origin) at 10 uM by Ambit Kinomescan binding assay.
Test [7] has as its target DNA-dependent protein kinase catalytic subunit (Homo sapiens) (UniProt P78527). Put plainly: Inhibition of PRKDC ATP labeling site harbouring KGGSWIQEINVAEK in human Huh-7 cells at 1 uM by KiNativ Profiling analysis relative to control. Type of test: cell-based.
For test [8], the target named is T1, Inhibitor of nuclear factor kappa-B kinase subunit epsilon (Homo sapiens) (UniProt Q14164).
T1 sequence (whole entry): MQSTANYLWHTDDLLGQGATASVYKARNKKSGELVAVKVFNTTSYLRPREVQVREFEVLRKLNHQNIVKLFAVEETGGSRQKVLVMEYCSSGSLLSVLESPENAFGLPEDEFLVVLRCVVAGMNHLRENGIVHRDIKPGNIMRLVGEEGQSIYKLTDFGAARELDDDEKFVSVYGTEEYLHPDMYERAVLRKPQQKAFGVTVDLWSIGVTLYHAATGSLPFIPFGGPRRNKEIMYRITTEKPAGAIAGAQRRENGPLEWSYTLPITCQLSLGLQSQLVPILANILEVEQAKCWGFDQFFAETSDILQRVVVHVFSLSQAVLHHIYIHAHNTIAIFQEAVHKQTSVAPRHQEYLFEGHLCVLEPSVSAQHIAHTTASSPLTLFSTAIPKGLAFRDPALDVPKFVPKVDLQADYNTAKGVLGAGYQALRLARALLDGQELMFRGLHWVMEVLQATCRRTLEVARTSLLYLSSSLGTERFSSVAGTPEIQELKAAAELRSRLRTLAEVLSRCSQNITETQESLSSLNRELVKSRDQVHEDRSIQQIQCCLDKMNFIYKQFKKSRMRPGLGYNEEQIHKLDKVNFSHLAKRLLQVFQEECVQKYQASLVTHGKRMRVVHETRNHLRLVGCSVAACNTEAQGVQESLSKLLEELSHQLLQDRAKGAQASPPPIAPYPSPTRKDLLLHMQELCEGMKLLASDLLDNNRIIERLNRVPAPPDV
Put plainly: Inhibition of IKKe Lys1 labeling site in human A-375 cells at 0.05 uM by KiNativ Profiling analysis relative to control. Type of test: cell-based.

The target in test [9] is STE20-like serine/threonine-protein kinase (Homo sapiens) (UniProt Q9H2G2). Put plainly: Inhibition of SLK Lys1 labeling site in human Huh-7 cell lysate at 1 uM by KiNativ Profiling analysis relative to control. Type of test: subcellular.
Test [10] has as its target T2, Mitogen-activated protein kinase kinase kinase kinase 2 (Homo sapiens) (UniProt Q12851).
T2 sequence (whole entry): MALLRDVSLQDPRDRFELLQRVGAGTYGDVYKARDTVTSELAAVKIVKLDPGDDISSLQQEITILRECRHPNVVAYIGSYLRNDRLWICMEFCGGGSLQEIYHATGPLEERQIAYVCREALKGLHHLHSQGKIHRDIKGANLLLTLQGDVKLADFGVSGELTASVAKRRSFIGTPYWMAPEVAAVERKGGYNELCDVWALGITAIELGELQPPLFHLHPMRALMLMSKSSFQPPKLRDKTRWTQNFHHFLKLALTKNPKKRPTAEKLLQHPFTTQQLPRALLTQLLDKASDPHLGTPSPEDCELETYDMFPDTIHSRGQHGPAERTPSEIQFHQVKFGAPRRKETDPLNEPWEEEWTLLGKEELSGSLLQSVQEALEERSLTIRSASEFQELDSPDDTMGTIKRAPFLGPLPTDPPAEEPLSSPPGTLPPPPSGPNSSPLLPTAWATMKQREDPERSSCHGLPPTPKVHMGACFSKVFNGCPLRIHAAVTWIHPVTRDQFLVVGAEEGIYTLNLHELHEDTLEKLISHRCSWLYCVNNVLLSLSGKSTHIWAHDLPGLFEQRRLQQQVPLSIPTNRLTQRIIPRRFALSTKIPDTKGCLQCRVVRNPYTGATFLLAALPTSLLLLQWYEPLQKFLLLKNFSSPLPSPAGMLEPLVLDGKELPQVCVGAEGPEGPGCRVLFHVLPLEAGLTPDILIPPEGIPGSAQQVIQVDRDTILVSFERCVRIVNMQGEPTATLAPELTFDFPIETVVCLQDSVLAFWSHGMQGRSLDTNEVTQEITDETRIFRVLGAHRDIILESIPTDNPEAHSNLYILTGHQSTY
Kind of test: Inhibition of MAP4K2 (GCK) Lys1 labeling site in human Huh-7 cells at 1 uM by KiNativ Profiling analysis relative to control. Type of test: cell-based.

Test [11] addresses Tyrosine-protein kinase Fyn (Homo sapiens) (UniProt P06241). Kind of test: Inhibition of FYN ACT labeling site in human Huh-7 cell lysate at 1 uM by KiNativ Profiling analysis relative to control. Type of test: subcellular.
In test [12] the target is Ribosomal protein S6 kinase alpha-4 (Homo sapiens) (UniProt O75676). Put plainly: Inhibition of MSK2 domain1 ATP Loop labeling site in human Huh-7 cells at 1 uM by KiNativ Profiling analysis relative to control. It is filed as cell-based.
Test [13] concerns the target DNA-PK/Ku70/Ku85 (Homo sapiens) (UniProt P78527+P12956+P13010). Kind of test: Inhibition of DNAPK ATP labeling site harbouring KGGSWIQEINVAEKNWYPR in human Huh-7 cells at 1 uM by KiNativ Profiling analysis relative to control. It is filed as cell-based.
For test [14], the target named is Ribosomal protein S6 kinase alpha-3 (Homo sapiens) (UniProt P51812). Put plainly: Inhibition of RSK2 domain2 Protein Kinase Domain labeling site in human Huh-7 cell lysate at 1 uM by KiNativ Profiling analysis relative to control. Type of test: subcellular.
The target of test [15] is Focal adhesion kinase 1 (Homo sapiens) (UniProt Q05397). Put plainly: Inhibition of FAK Lys1 labeling site in human Huh-7 cell lysate at 1 uM by KiNativ Profiling analysis relative to control. Type of test: subcellular.

Chain of Tyrosine-protein kinase Fyn (Homo sapiens) (P06241 2-537 limits assumed): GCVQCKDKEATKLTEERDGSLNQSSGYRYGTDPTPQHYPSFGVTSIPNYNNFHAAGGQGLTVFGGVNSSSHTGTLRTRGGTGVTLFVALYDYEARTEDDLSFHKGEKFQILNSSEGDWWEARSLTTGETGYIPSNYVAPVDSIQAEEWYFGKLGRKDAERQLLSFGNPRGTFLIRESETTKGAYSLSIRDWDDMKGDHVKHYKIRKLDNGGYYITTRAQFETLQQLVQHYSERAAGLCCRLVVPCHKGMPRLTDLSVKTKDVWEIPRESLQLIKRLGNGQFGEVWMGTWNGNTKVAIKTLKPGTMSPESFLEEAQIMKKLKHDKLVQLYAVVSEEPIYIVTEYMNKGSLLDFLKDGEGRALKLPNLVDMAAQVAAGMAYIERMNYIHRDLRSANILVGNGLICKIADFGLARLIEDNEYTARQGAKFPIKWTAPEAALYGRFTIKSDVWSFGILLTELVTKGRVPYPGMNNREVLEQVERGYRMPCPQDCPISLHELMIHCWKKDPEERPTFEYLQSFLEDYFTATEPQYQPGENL
Chain of PKC alpha and beta-2 (Homo sapiens) (P05771 whole entry, looked up): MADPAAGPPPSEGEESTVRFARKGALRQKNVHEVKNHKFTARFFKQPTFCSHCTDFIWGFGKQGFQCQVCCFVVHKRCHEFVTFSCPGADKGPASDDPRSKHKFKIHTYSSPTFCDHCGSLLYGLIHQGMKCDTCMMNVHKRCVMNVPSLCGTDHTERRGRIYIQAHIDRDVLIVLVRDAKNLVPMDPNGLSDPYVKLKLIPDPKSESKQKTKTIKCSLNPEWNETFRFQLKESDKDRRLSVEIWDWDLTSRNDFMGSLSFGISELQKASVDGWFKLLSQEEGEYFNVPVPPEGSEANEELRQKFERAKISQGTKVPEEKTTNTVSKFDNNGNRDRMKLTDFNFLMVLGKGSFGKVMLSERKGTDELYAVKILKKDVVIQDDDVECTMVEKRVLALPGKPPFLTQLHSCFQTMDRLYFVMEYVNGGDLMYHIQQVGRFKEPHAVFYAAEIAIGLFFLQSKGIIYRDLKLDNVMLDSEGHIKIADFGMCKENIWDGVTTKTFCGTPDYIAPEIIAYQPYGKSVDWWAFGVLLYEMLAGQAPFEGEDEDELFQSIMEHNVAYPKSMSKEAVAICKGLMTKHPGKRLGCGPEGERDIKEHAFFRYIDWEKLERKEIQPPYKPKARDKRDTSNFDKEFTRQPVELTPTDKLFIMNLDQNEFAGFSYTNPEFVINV
Chain of Tyrosine-protein kinase HCK (Homo sapiens) (P08631 2-526 limits assumed): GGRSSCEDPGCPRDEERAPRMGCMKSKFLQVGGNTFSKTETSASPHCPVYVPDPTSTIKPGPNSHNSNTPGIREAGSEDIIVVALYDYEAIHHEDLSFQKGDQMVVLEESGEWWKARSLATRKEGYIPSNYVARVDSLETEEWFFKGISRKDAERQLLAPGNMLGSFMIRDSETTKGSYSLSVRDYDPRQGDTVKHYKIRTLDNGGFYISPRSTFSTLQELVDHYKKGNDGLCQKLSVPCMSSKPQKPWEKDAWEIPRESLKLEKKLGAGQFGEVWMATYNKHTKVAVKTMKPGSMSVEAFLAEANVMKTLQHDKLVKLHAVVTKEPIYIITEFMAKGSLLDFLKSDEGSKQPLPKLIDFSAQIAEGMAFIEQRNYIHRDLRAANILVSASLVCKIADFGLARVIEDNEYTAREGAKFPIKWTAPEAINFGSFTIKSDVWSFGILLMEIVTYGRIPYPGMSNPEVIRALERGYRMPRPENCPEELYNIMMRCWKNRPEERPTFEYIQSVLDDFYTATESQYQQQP

Take `CCN1CCN(Cc2ccc(NC(=O)c3ccc(C)c(/C=C/c4cnc5[nH]ccc5c4OC)c3)cc2C(F)(F)F)CC1`: the inhibition (commonly the change of the read-out against control, counted positive when it falls) came to 26% in test [1] and 1.6% in test [3]. Also, the residual activity (as a rule, the activity still measured, relative to the control) in test [2] was found to be 0.5%.
Take `CCN1CCN(Cc2ccc(NC(=O)c3ccc(C)c(Oc4ccnc5[nH]ccc45)c3)cc2C(F)(F)F)CC1`: the inhibition is 1.3% in [4], -3.4% in test [5], 0.9% in test [7] and -3.7% in [8]. Further, in [6], the inhibition result is “inactive”.
With `CNc1cc(Oc2cc(C(=O)Nc3cc(N4CCN(C)CC4)cc(C(F)(F)F)c3)ccc2C)ncn1`, the inhibition in [9] was found to be 3.9%; in [10], 88.3%; in test [11], 22%; in test [12] it was 11.5%; in [13] it was 68.1%; in [14], 5.9%. For the same molecule, in test [15], the inhibition was 3.3%.
